Read-outs that look alike come from different tables or passages of the source.
Legend:
[1] = tested on: MM2MT tumors; assay: Tumor ablation, MM2MT mammary fat pad tumors (about 40 mm^3) in athymic mice; format: in vivo, BALB/c athymic nu/nu mice; settings: GCV administered alone (data not shown)
Procedure: 10^6 MM2MT cells were suspended in 0.1 ml serum and antibiotic-free DMEM medium and injected subcutaneously into the mammary fat pad. Tumor latency was determined as the time necessary for the tumors to grow to 0.5 cm (largest diameter). Tumor doubling times were determined by daily measuring the smallest (d) and the largest (D) diameters with calipers, and estimating the volume using the formula, V=D×d^2×0.52. The reported numbers are the mean and standard deviation of the tumor volumes for each group.
When the tumor volumes were approximately 40 mm^3, the mice were randomly separated into two groups, and either the BK-TK or the BK-UTK vectors were injected as a liposomal complex near the tumor. To make the liposomal complex for transfection of primary tumors, 10 μg of endotoxin-free purified (QIAGEN, Inc., Valencia, Calif.) plasmid DNA was diluted in 50 μl medium without serum or antibiotics. In a separate tube, 50 μl of GenePORTER reagent (Gene Therapy Systems, San Diego, Calif.) was mixed with 50 μl serum and antibiotic-free medium. The two tubes were then combined, briefly vortexed, and allowed to incubate at room temperature for 20 minutes, after which the resulting liposome complex was injected between the tumor and the skin of the mouse.
One of the 6 mice in each group had no palpable tumor remaining at the end of the 10-day treatment.

[2] = tested on: MDA-231; settings: for ED50: GCV 14 days
[3] = tested on: MCF7; settings: GCV 14 days
[4] = tested on: MM2MT; assay: cells; settings: Mus musculus, 336 h, GCV 14 days
Procedure: (§1) Each vector was then stably transfected into either MM3MG cells (ATCC No.CRL6376, a normal mouse mammary line) or MM2MT cells (ATCC No. CRL6373, a mouse mammary carcinoma line). Unless otherwise stated, all cell lines were purchased from the American Type Culture Collection (“ATCC”), Manassas, Va. To overexpress eIF4E (referred to as eIF4E-S, for “sense”), the eIF4E cDNA was cloned into KpnI and NotI sites of the pREP7 episomal vector (Invitrogen, Carlsbad, Calif.). To reduce the eIF4E expression (referred to as eIF4E-AS, for “antisense”), an antisense eIF4E construct was subcloned into the pREP7 vector as described in A. De Benedetti et al., “Expression of antisense RNA against initiation factor eIF-4E mRNA in HeLa cells results in lengthened cell division times, diminished translation rates, and reduced levels of both eIF-4E and the P220 component of eIF-4F,” Mol. Cell. Biol., vol. 11, pp. 5435-5445 (1991).
(§2) All transfections were performed with the GenePORTER reagent (Gene Therapy Systems, San Diego, Calif.). Stable cell lines were obtained by selection with G418 for the BK constructs, and Hygromycin B for the pREP7 vectors.

[5] = tested on: MM3MG; assay: cells; settings: for EC50: Mus musculus, MM3MG, 336 h, GCV 14 days
Procedure: as §1, §2

[6] = tested on: MDA-435S; settings: GCV 14 days
[7] = tested on: MCF-10A; settings: GCV 14 days

## Nc1nc(O)c2ncn(COC(CO)CO)c2n1 [GCV, Ganciclovir]
[1]
  effect on the growth of MM2MT tumors: no effect
[2]; MDA-231-TK and MDA-231-UTK cells, otherwise insensitive to GCV
  GCV concentration of non-specific toxicity: 5 mM
[2]; MDA-231-TK cells
  ED50: 4000 µM
[2]; MDA-231-UTK cells
  ED50: 4000 µM
[2]; MDA-231 untransfected cells
  ED50: 6000 µM
[3]; MCF7-TK cells
  ED50: 20 µM
[3]; MCF7-UTK cells
  ED50: 10 µM
[3]; MCF7 untransfected cells
  ED50: 6000 µM
[4]; read-out: ED50, MM2MT untransfected cells
  EC50: 95 µM
[4]; read-out: ED50, MM2MT-TK cells
  EC50: 0.095 µM
[4]; read-out: ED50, MM2MT-TK/4E-AS cells
  EC50: 0.15 µM
[4]; read-out: ED50, MM2MT-UTK cells
  EC50: 0.5 µM
[4]; read-out: ED50, MM2MT-UTK/4E-AS cells
  EC50: 55 µM
[5]; MM3MG-TK (normal) cells, 14 days
  GCV concentration to which cells were sensitive (dose-response curve): 0.1 µM
[5]; read-out: ED50, MM3MG untransfected cells, concentration that kills 50% of the cells
  EC50: 200 µM
[5]; read-out: ED50, MM3MG-TK cells
  EC50: 0.3 µM
[5]; read-out: ED50, MM3MG-UTK cells
  EC50: 75 µM
[5]; read-out: ED50, MM3MG-UTK/4E-AS cells (so in the source)
  EC50: 0.9 µM
[5]; untransfected MM3MG cells, 14 days
  GCV concentration at which cells were non-specifically inhibited: 200 µM
[6]; MDA-435S untransfected cells
  ED50: 350 µM
[6]; MDA-435S-TK cells
  ED50: 15 µM
[6]; MDA-435S-UTK cells
  ED50: 15 µM
[7]; MCF-10A untransfected cells
  ED50: 6000 µM
[7]; MCF-10A-TK cells
  ED50: 300 µM
[7]; MCF-10A-UTK cells
  ED50: 5500 µM

From US7592320B2, “Cancer gene therapy based on translational control of a suicide gene” (priority 2001, dated 2009)
